Experimental data published in the NIST ThermoML archive (doi:10.1016/j.fluid.2014.09.014).

Assay: refractive index (other wavelength) (dimensionless); xn = mol fraction of the nth substance listed
Details: 101 kPa, Liquid, Standard Abbe refractometry

CC(C)OC(C)C [diisopropyl ether] + CC(C)O
refractive index
Details | Wavelength=404.7 nm | Wavelength=435.8 nm | Wavelength=486.1 nm | Wavelength=546.1 nm | Wavelength=587.6 nm | Wavelength=589.3 nm | Wavelength=632.8 nm | Wavelength=644 nm | Wavelength=706.5 nm
308.15 K, x1 = 0.0277 | 1.38135 | 1.37835 | 1.37495 | 1.37214 | 1.37065 | 1.37059 | 1.36929 | 1.36899 | 1.36755
308.15 K, x1 = 0.0507 | 1.3813 | 1.3783 | 1.37488 | 1.37207 | 1.37059 | 1.37053 | 1.36924 | 1.36894 | 1.36748
308.15 K, x1 = 0.051 | 1.38124 | 1.37824 | 1.37483 | 1.37202 | 1.37053 | 1.37047 | 1.36917 | 1.36887 | 1.36742
308.15 K, x1 = 0.0717 | 1.38092 | 1.37792 | 1.37451 | 1.3717 | 1.37072 | 1.37014 | 1.36886 | 1.36856 | 1.36711
308.15 K, x1 = 0.1528 | 1.38023 | 1.37724 | 1.37384 | 1.371 | 1.36953 | 1.36947 | 1.3682 | 1.3679 | 1.36646
308.15 K, x1 = 0.1553 | 1.38023 | 1.37724 | 1.37384 | 1.371 | 1.36953 | 1.36947 | 1.3682 | 1.3679 | 1.36646
308.15 K, x1 = 0.1938 | 1.37994 | 1.37695 | 1.37356 | 1.37072 | 1.36925 | 1.36919 | 1.36792 | 1.36761 | 1.36617
308.15 K, x1 = 0.2029 | 1.3793 | 1.37665 | 1.37311 | 1.37028 | 1.3688 | 1.36875 | 1.36748 | 1.36718 | 1.36573
308.15 K, x1 = 0.245 | 1.37901 | 1.37603 | 1.37266 | 1.36984 | 1.36837 | 1.36832 | 1.36706 | 1.36676 | 1.36532
308.15 K, x1 = 0.297 | 1.37832 | 1.37533 | 1.37193 | 1.36911 | 1.36764 | 1.36759 | 1.36631 | 1.36601 | 1.36457
308.15 K, x1 = 0.2973 | 1.37852 | 1.37554 | 1.37215 | 1.36932 | 1.36785 | 1.3678 | 1.36653 | 1.36623 | 1.3648
308.15 K, x1 = 0.3068 | 1.37823 | 1.37525 | 1.3718 | 1.36857 | 1.36754 | 1.36751 | 1.36624 | 1.36594 | 1.36451
308.15 K, x1 = 0.398 | 1.37692 | 1.37394 | 1.37056 | 1.36775 | 1.36628 | 1.36623 | 1.36496 | 1.36466 | 1.36323
308.15 K, x1 = 0.4609 | 1.37625 | 1.37325 | 1.36987 | 1.36707 | 1.3656 | 1.36554 | 1.36427 | 1.36397 | 1.36254
308.15 K, x1 = 0.5434 | 1.37535 | 1.37238 | 1.36896 | 1.3662 | 1.36473 | 1.36467 | 1.36338 | 1.36309 | 1.36168
308.15 K, x1 = 0.6032 | 1.37466 | 1.3717 | 1.3683 | 1.3655 | 1.36404 | 1.36398 | 1.36271 | 1.36241 | 1.361
308.15 K, x1 = 0.6371 | 1.37427 | 1.37131 | 1.36792 | 1.36515 | 1.36369 | 1.36363 | 1.36235 | 1.36205 | 1.36064
308.15 K, x1 = 0.701 | 1.37352 | 1.37059 | 1.36722 | 1.36441 | 1.36297 | 1.36292 | 1.36166 | 1.36135 | 1.35993
308.15 K, x1 = 0.754 | 1.37312 | 1.37017 | 1.36681 | 1.36401 | 1.36256 | 1.36251 | 1.36125 | 1.36096 | 1.35954
308.15 K, x1 = 0.791 | 1.37271 | 1.36974 | 1.36638 | 1.36358 | 1.36215 | 1.36209 | 1.36085 | 1.36054 | 1.35911
308.15 K, x1 = 0.8296 | 1.37234 | 1.36938 | 1.36604 | 1.36323 | 1.36178 | 1.36173 | 1.36048 | 1.36018 | 1.35877
308.15 K, x1 = 0.8864 | 1.37212 | 1.36915 | 1.3658 | 1.363 | 1.36156 | 1.36151 | 1.36026 | 1.35996 | 1.35855
308.15 K, x1 = 0.8903 | 1.37167 | 1.36871 | 1.36535 | 1.36256 | 1.36111 | 1.36106 | 1.35981 | 1.35952 | 1.3581
308.15 K, x1 = 0.9113 | 1.37142 | 1.36847 | 1.36511 | 1.36232 | 1.36088 | 1.36082 | 1.35957 | 1.35928 | 1.35786
308.15 K, x1 = 0.9547 | 1.37095 | 1.36796 | 1.36465 | 1.36187 | 1.36041 | 1.36036 | 1.3591 | 1.3588 | 1.35741
308.15 K, x1 = 0.973 | 1.37062 | 1.36766 | 1.36431 | 1.36152 | 1.36008 | 1.36002 | 1.35877 | 1.35847 | 1.35707
308.15 K, x1 = 0.9771 | 1.37048 | 1.36752 | 1.36417 | 1.36139 | 1.35994 | 1.35989 | 1.35864 | 1.35835 | 1.35694
308.15 K, x1 = 1 | 1.37035 | 1.36739 | 1.36407 | 1.36127 | 1.35975 | 1.35983 | 1.35853 | 1.35823 | 1.35683
313.15 K, x1 = 0.0277 | 1.37904 | 1.37606 | 1.37269 | 1.36987 | 1.3684 | – | – | – | –
313.15 K, x1 = 0.0507 | 1.37898 | 1.376 | 1.37262 | 1.3698 | 1.36833 | – | – | – | –
313.15 K, x1 = 0.051 | 1.37891 | 1.37594 | 1.37256 | 1.36974 | 1.36828 | – | – | – | –
313.15 K, x1 = 0.0717 | 1.37855 | 1.37558 | 1.37221 | 1.36939 | 1.36792 | – | – | – | –
313.15 K, x1 = 0.1528 | 1.37787 | 1.3749 | 1.3715 | 1.36872 | 1.36724 | – | – | – | –
313.15 K, x1 = 0.1553 | 1.37787 | 1.3749 | 1.3715 | 1.36872 | 1.36724 | – | – | – | –
313.15 K, x1 = 0.1938 | 1.37761 | 1.37465 | 1.37126 | 1.36846 | 1.36699 | – | – | – | –
313.15 K, x1 = 0.2029 | 1.37706 | 1.37411 | 1.37068 | 1.36791 | 1.36645 | – | – | – | –
313.15 K, x1 = 0.245 | 1.37653 | 1.37358 | 1.37022 | 1.36743 | 1.36596 | – | – | – | –
313.15 K, x1 = 0.297 | 1.37571 | 1.37276 | 1.36938 | 1.36658 | 1.36512 | – | – | – | –
313.15 K, x1 = 0.2973 | 1.37596 | 1.37298 | 1.36959 | 1.36682 | 1.36535 | – | – | – | –
313.15 K, x1 = 0.3068 | 1.37567 | 1.37271 | 1.36934 | 1.36655 | 1.36509 | – | – | – | –
313.15 K, x1 = 0.398 | 1.37428 | 1.37134 | 1.36798 | 1.3652 | 1.36376 | – | – | – | –
313.15 K, x1 = 0.4609 | 1.37355 | 1.3706 | 1.36724 | 1.36445 | 1.36302 | – | – | – | –
313.15 K, x1 = 0.5434 | 1.37263 | 1.36967 | 1.36633 | 1.36354 | – | – | – | – | –
313.15 K, x1 = 0.6032 | 1.37187 | 1.36891 | 1.36561 | 1.36281 | – | – | – | – | –
313.15 K, x1 = 0.6371 | 1.37152 | 1.36856 | 1.36522 | 1.36243 | – | – | – | – | –
313.15 K, x1 = 0.701 | 1.37074 | 1.36779 | 1.36447 | 1.36168 | – | – | – | – | –
313.15 K, x1 = 0.754 | 1.3703 | 1.36737 | 1.36403 | 1.36126 | – | – | – | – | –
313.15 K, x1 = 0.791 | 1.36988 | 1.36694 | 1.36363 | 1.36084 | – | – | – | – | –
313.15 K, x1 = 0.8296 | 1.36948 | 1.36655 | 1.36322 | 1.36045 | – | – | – | – | –
313.15 K, x1 = 0.8864 | 1.36937 | 1.36643 | 1.36308 | 1.36035 | – | – | – | – | –
313.15 K, x1 = 0.8903 | 1.3688 | 1.36585 | 1.36252 | 1.35976 | – | – | – | – | –
313.15 K, x1 = 0.9113 | 1.36853 | 1.3656 | 1.36228 | 1.35952 | – | – | – | – | –
313.15 K, x1 = 0.9547 | 1.36805 | 1.36513 | 1.3618 | 1.35904 | – | – | – | – | –
313.15 K, x1 = 0.973 | 1.36771 | 1.36481 | 1.36145 | 1.35868 | – | – | – | – | –
313.15 K, x1 = 0.9771 | 1.36756 | 1.36465 | 1.36134 | 1.35856 | – | – | – | – | –
313.15 K, x1 = 1 | 1.3674 | 1.36447 | 1.36119 | 1.35842 | – | – | – | – | –
